Values joined by “and” are separate entries in the source; they are usually repeats but may differ in a detail not shown here. Identical values can stand only once. Like-named read-outs stand apart in the source and are kept apart here.
Experiments:
[1] = system: carrageenan-induced mouse paw edema; experiment: Carrageenan-induced mouse paw edema; type: in vivo; conditions: i.p., 0.028 mmol/kg, paw weight after 3.5 h; for inhibition in vivo at 28 µmol/kg: Mus musculus, ip, 3.5 h
Description: All tested compounds were administrated through i.p. with a molar concentration of 0.028 mmol/kg.
The animals were weighed and then randomly divided into control, standard and test groups with each group including 10 mice. […] Edema was induced by injecting 0.1 mL of 1% aqueous solution of carrageenan subcutaneously to the sub-plantar region of the right hind paw, utilizing the left paw as control. The assessed derivatives, in suspended water/Tween-80, were injected i.p. […] After 3.5 h, the hind paws were excised and were weighed separately. The edema paws were estimated as paw weight increase.

[2] = system: gastric mucosa; experiment: Ulcerogenic activity (gastric lesions after oral dosing); type: in vivo; conditions: mice, oral 0.028 mmol/kg, 3 successive days, N = 5
Description: Gastric toxicity was conducted through oral administration of 0.028 mmol/kg of the tested derivatives on mice, and the extent of lesions of the gastric mucosa was measured. […] This study clearly indicated the superiority of our compounds over indomethacin concerning ulcerogenic liability.
The ulcerogenicity effect of compounds was assessed on male mice by following the reported protocol. Male mice weighing 22–25 g were separated into six groups (five animals in each group). […] The placebo control group was administrated saline with few drops of Tween-80. The animals were sacrificed 4 h after the last dose, and the stomachs were inspected for stomach lesions. The scoring of ulcerogenicity was expressed in terms of: average number of ulcers per stomach, percentage incidence of ulcers and percent incidence of ulcer divided by 10. The ulcer index was calculated using the sum of the three above values.

[3] = target: T1, ovine COX-1 (Ovis aries, UniProt P05979); experiment: COX-1 inhibition (Cayman COX Inhibitor Screening Assay); type: biochemical; conditions: for IC50: read-out: COX-1 Inhibition, IC50 (μΜ)
T1 construct: purchased Cayman Chemical Co., Ann Arbor, MI, USA
T1 sequence (P05979 25-600): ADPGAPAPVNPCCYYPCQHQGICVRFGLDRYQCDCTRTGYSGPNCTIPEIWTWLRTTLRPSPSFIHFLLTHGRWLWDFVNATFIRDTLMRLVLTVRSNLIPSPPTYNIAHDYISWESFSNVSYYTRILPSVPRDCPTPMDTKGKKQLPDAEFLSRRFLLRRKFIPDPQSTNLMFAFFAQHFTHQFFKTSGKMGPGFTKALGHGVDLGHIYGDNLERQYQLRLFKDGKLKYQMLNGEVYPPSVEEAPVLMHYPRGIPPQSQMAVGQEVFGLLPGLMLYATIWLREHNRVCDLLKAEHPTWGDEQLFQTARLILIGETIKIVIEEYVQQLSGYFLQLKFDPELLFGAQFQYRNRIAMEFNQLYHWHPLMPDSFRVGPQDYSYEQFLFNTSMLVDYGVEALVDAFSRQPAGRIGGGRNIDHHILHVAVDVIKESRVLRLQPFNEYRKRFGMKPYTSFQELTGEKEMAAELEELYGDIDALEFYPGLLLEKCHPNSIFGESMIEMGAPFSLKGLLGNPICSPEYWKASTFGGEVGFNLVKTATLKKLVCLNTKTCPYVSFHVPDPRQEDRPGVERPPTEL
Description: (§1) κ-Carrageenan and lipoxygenase type I-B from soybean were obtained from Sigma (St. Louis, MO, USA). COX inhibition was studied utilizing the kit of “COX Inhibitor Screening Assay” (Cayman Chemical Co., Ann Arbor, MI, USA).
(§2) The action of the tested derivatives on COX-1 and COX-2 inhibition was analyzed utilizing a commercial kit furnished by Cayman (Cayman Chemical Co., Ann Arbor, MI, USA) and by applying the instructions of the manufacturer. The kit utilizes human recombinant COX-2 and ovine COX-1 enzymes. […] The assay analyzes PGF2a produced by SnCl2 reduction of COX-derived PGH2.

[4] = system: T2, human recombinant COX-2; experiment: COX-2 inhibition (Cayman COX Inhibitor Screening Assay); type: biochemical
T2 construct: purchased Cayman Chemical Co., Ann Arbor, MI, USA
Description: as §1, §2

[5] = system: T3, soybean LOX; experiment: LOX activity inhibition; type: biochemical
T3 construct: purchased Sigma (St. Louis, MO, USA)
Source text: κ-Carrageenan and lipoxygenase type I-B from soybean were obtained from Sigma (St. Louis, MO, USA). COX inhibition was studied utilizing the kit of “COX Inhibitor Screening Assay” (Cayman Chemical Co., Ann Arbor, MI, USA). In vivo tests, male and female (23–30 g) mice R”’ were stored in the Centre of the School of Veterinary Medicine (EL54-BIO42), (Aristotle University of Thessaloniki, Thessaloniki, Greek), licensed by the state official veterinary authorities (presidential degree 56/2013, in standardization with the European Directive 2010/63/EEC). The experimental protocols were approved by the Committee of Animal Ethics of the Prefecture of Central Macedonia (no. 270079/2500).
The reaction mixture contained the final concentration (300 µΜ) of the test derivatives, dissolved in absolute ethanol (10–300 µM), or the solvent (control), soybean LOX, dissolved in 0.9% NaCl solution (250 u/mL) and sodium linoleate (100 µM), in Tris–HCl buffer, pH 9.0. The reaction was monitored for 7 min at a temperature of 28 °C, noting the absorbance (234 nm) of a conjugated diene structure, following the formation of 13-hydroperoxy-linoleic acid. The performance of the assay was validated utilizing NDGA as a standard. For the evaluation of the inhibition type, the above experiments were repeated, utilizing sodium linoleate (1 mM), which is greater than the saturating substrate concentration.

[6] = system: MRC-5 cells; experiment: Cytotoxicity / cell proliferation in MRC-5 cells; type: cell-based, human; conditions: MRC-5 cells, 0.1, 1 and 10 μM, 48 h
Description: The evaluation of cellular cytotoxicity of derivatives 3, 4, 10, 11 and 14 in normal human MRC-5 cells was accomplished at three different concentrations in cell culture, i.e., 0.1, 1 and 10 μM (Figure 7). No substantial effect on cell proliferation after 48 h of exposure was found in cultures, as the growth was ≥98% for all assessed agents by comparison with the control (untreated cells) (Figure 7).
The MRC-5 human cell line from lung fibroblast was stored and then utilized in our laboratory in a conventional manner (passage < 40). MRC-5 cells were cultured (using a humidified atmosphere enclosing 5% CO2 at 37 °C) in medium DMEM with 10% v/v FBS, 1% PS penicillin–streptomycin. The assessed derivatives were dissolved in dimethyl sulfoxide and stored at a temperature of 4 degrees centigrade. For cytotoxicity assessment, cells were seeded in 96-well culture plates at 5 × 10^4 cells/mL (initial density) and permitted to attach for at least 3 h before adding the compounds at increasing concentrations (0.1, 1 and 10 µM). […] To evaluate the cytotoxicity of each derivative, the cells were given an additional 48 h to grow before estimating their number in culture utilizing the Neubauer counting chamber (microscope observation). In every treated culture, cell growth was expressed and reported as the percentage of untreated growing cells. GraphPad Prism 6.0 program was utilized in order to accomplish statistical t-test analysis.
Figure 7 Cell proliferation assessment of MRC-5 cell lines subjected to different derivatives in cell culture. MRC-5 cell lines grown in culture were incubated separately with each of the derivatives at concentrations of 0.1, 1 and 10 μM for 48 h. The cell number was analyzed in cell cultures with microscopic techniques (Neubauer counting chamber), as reported in “Methods” and expressed as % of the proliferation of cultures involving control untreated cells. […] The diagram illustrated above and the t-test statistical analysis were performed utilizing the GraphPad Prism 6.0 program. No significant statistical difference between the control untreated culture cells with each tested derivative was attained.

[7] = cited from earlier work

O=C1NC(=Nc2nnc(C34CC5CC(CC(C5)C3)C4)s2)SC1=Cc1ccc([N+](=O)[O-])cc1 [Compound 4]
inhibition in vivo at 28 µmol/kg [1]: 66.7%
Edema Inhibition, (%) [1]: 66.7 ± 2.1 %
Number of Animals with Ulcer [2]: nil
COX-1 Inhibition, Inhibition (%) 200 μΜ [3]: 100%
IC50 [3]: 1.12 µM and 1.08 µM
COX-2 Inhibition, Inhibition (%) 200 μΜ [4]: 0%
Enzymatic inhibition against LOX (in words) [5]: modest enzymatic inhibition
LOX Inhibition (%) 100 μΜ [5]: 39.8 ± 181 %
Cell growth by comparison with the control (untreated cells) [6]: ≥ 98%

COc1ccc2c(c1)c(CC(=O)O)c(C)n2C(=O)c1ccc(Cl)cc1 [Indomethacin, reference compound]
Number of Animals with Ulcer [2]: 4/5
Number of Animals with Ulcer ([2]; listed as indomethacin): four out of five

COc1cc(/C=C2\S/C(=N/c3nnc(C45CC6CC(CC(C6)C4)C5)s3)NC2=O)ccc1O [Compound 15]
inhibition in vivo at 28 µmol/kg [1]: 21.4%
Edema Inhibition, (%) [1]: 21.4 ± 2.1 %

Nc1ccc(NC(=O)c2ccc(C(F)(F)F)cc2)cc1 [TFAP]
Gastric toxicity (in words) ([7]; in vivo): devoid of any gastric toxicity

O=C1N/C(=N\c2nnc(C34CC5CC(CC(C5)C3)C4)s2)S/C1=C\c1c(F)cccc1F [Compound 11]
inhibition in vivo at 28 µmol/kg [1]: 60%
Cell growth by comparison with the control (untreated cells) [6]: ≥ 98%

O=C1N/C(=N\c2nnc(C34CC5CC(CC(C5)C3)C4)s2)S/C1=C\c1ccc(Cl)cc1Cl [Compound 13]
inhibition in vivo at 28 µmol/kg [1]: 36 ± 1.8%

O=C1N/C(=N\c2nnc(C34CC5CC(CC(C5)C3)C4)s2)S/C1=C\c1ccc(F)cc1 [Compound 2]
inhibition in vivo at 28 µmol/kg [1]: 39.7 ± 1.6%

O=C1N/C(=N\c2nnc(C34CC5CC(CC(C5)C3)C4)s2)S/C1=C\c1ccccc1 [Compound 1]
inhibition in vivo at 28 µmol/kg [1]: 40.8 ± 1.9%

O=C1NC(=Nc2nnc(C34CC5CC(CC(C5)C3)C4)s2)SC1=Cc1ccc(Br)cc1 [Compound 3]
inhibition in vivo at 28 µmol/kg [1]: 62%
Edema Inhibition, (%) [1]: 62.0 ± 1.8 %
Number of Animals with Ulcer [2]: nil
COX-1 Inhibition, Inhibition (%) 200 μΜ [3]: 100%
IC50 [3]: 1.08 µM and 1.12 µM
COX-2 Inhibition, Inhibition (%) 200 μΜ [4]: 0%
Enzymatic inhibition against LOX (in words) [5]: modest enzymatic inhibition
LOX Inhibition (%) 100 μΜ [5]: 42.9 ± 1.9 %
Cell growth by comparison with the control (untreated cells) [6]: ≥ 98%

Cc1ccc(/C=C2\S/C(=N/c3nnc(C45CC6CC(CC(C6)C4)C5)s3)NC2=O)cc1 [Compound 5]
inhibition in vivo at 28 µmol/kg [1]: 47.2 ± 1.2%

COc1ccc(/C=C2\S/C(=N/c3nnc(C45CC6CC(CC(C6)C4)C5)s3)NC2=O)cc1 [Compound 6]
inhibition in vivo at 28 µmol/kg [1]: 37 ± 1.6%

O=C1N/C(=N\c2nnc(C34CC5CC(CC(C5)C3)C4)s2)S/C1=C\c1cccc([N+](=O)[O-])c1 [Compound 9]
inhibition in vivo at 28 µmol/kg [1]: 41.9 ± 1.8%

COc1ccc2cc([C@H](C)C(=O)O)ccc2c1 [Naproxen, reference compound]
COX-2 Inhibition, Inhibition (%) 200 μΜ [4]: 17.0 ± 2.3 %

COc1ccc(-c2noc(CC(=O)O)c2-c2ccc(OC)cc2)cc1 [Mofezolac]
Ulcer index ([7]; dose of 10 mg): 0.98

Cc1onc(-c2ccc(Cl)o2)c1-c1ccccc1 [Compound P6]
Gastric toxicity (in words) [7]: devoid of any gastric toxicity

COc1ccc(-c2nc(NCC(=O)O)sc2-c2ccc(OC)cc2)cc1 [diarylthiazole]
Gastric damage (in words) [7]: low gastric damage

CC(C)Cc1ccc([C@H](CF)C(=O)O)cc1 [(S)-F-ibuprofen]
Gastric damage (in words) [7]: low gastric damage

O=C1NC(=Nc2nnc(C34CC5CC(CC(C5)C3)C4)s2)SC1=Cc1c(Cl)cccc1Cl [Compound 14]
inhibition in vivo at 28 µmol/kg [1]: 60 ± 1.9%
Number of Animals with Ulcer [2]: nil
COX-1 Inhibition, Inhibition (%) 200 μΜ [3]: 100%
IC50 [3]: 9.62 ± 0.5 µM
COX-2 Inhibition, Inhibition (%) 200 μΜ [4]: 0%
Enzymatic inhibition against LOX (in words) [5]: modest enzymatic inhibition
LOX Inhibition (%) 100 μΜ [5]: 34.5 ± 1.6 %
Cell growth by comparison with the control (untreated cells) [6]: ≥ 98%

COc1ccc2c(c1)c(CC(=O)O)c(C)n2C1CCN(C)CC1 [N-methylpiperidinylindole]
Gastric toxicity (in words) ([7]; in vivo): devoid of any gastric toxicity

O=C1N/C(=N\c2nnc(C34CC5CC(CC(C5)C3)C4)s2)S/C1=C\c1ccccc1[N+](=O)[O-] [Compound 8]
inhibition in vivo at 28 µmol/kg [1]: 37 ± 1.4%

O=C1NC(=Nc2nnc(C34CC5CC(CC(C5)C3)C4)s2)SC1=Cc1cccc(F)c1F [Compound 10, 2-{[5-(Adamantan-1-yl)-1,3,4-thiadiazol-2-yl]-imino}-5-(2,3-difluorobenzylidene)-1,3-thiazolidin-4-one]
inhibition in vivo at 28 µmol/kg [1]: 55.8%
Edema Inhibition, (%) [1]: 55.8 ± 1.9 %
Cell growth by comparison with the control (untreated cells) [6]: ≥ 98%

O=C1N/C(=N\c2nnc(C34CC5CC(CC(C5)C3)C4)s2)S/C1=C\c1cccc(Cl)c1Cl [Compound 12]
inhibition in vivo at 28 µmol/kg [1]: 34.5 ± 1.1%

COc1ccc(-n2nc(C(F)(F)F)cc2-c2ccc(Cl)cc2)cc1 [SC-560]
Gastric toxicity (in words) [7]: devoid of any gastric toxicity

CN(C)c1ccc(/C=C2\S/C(=N/c3nnc(C45CC6CC(CC(C6)C4)C5)s3)NC2=O)cc1 [Compound 7]
inhibition in vivo at 28 µmol/kg [1]: 43.6 ± 1.3%

COc1ccc(-c2nc(C(=O)N3CCN(C)CC3)sc2-c2ccc(OC)cc2)cc1 [FR122047]
Gastric toxicity (in words) [7]: devoid of any gastric toxicity

Source: article PMC10142904, “Identification of Novel Cyclooxygenase-1 Selective Inhibitors of Thiadiazole-Based Scaffold as Potent Anti-Inflammatory Agents with Safety Gastric and Cytotoxic Profile” (Molecules, 2023)
